{"source": "patent US10336768B2", "about": "“Pyrimidine compounds and methods using the same” (Yuma Therapeutics, Inc., priority 2014, dated 2019)", "data": [{"tested_on": "T1, His-tagged-Hsp90", "T1 construct": "fused on or other part: His tag (captured on Ni2+-coated beads)", "assay": "Hsp90 biochemical assay (AlphaLISA)", "assay_type": "binding", "conditions": "IC50 class; AlphaLISA (primary assay); read-out: Hsp90 inhibitory activity", "description": "(§1) This assay employs biotinylated geldanamycin, His-tagged-Hsp90, and Ni^+2 coated beads. This assay is homogenous and miniaturized to 384-well plates. Measurement of binding activity was performed on an Envision reader. […] This assay is the primary assay for evaluating compounds of the invention.", "units": {"IC50": "µM"}, "values": [{"smiles": "Nc1nc(-c2c(Cl)cc(Cl)c3c2CCO3)c2cc(C(=O)NC3CCC3)sc2n1", "note": "[compound 65, 2-amino-N-cyclobutyl-4-(5,7-dichloro-2,3-dihydrobenzofuran-4-yl)thieno[2,3-d]pyrimidine-6-carboxamide]", "IC50": "< 1"}, {"smiles": "CON(C)C(=O)c1cc2c(-c3c(Cl)cc(Cl)c4c3CCO4)nc(N)nc2s1", "note": "[compound 75, 2-amino-4-(5,7-dichloro-2,3-dihydrobenzofuran-4-yl)-N-methoxy-N-methylthieno[2,3-d]pyrimidine-6-carboxamide]", "IC50": "< 1"}, {"smiles": "Nc1nc(-c2c(Cl)cc(Cl)c3c2CCO3)c2cc(C(=O)N3CCCC3)sc2n1", "note": "[compound 69, (2-amino-4-(5,7-dichloro-2,3-dihydrobenzofuran-4-yl)thieno[2,3-d]pyrimidin-6-yl)(pyrrolidin-1-yl)methanone]", "IC50": "1 to 4"}, {"smiles": "COc1cc(-c2nc(N)nc3c2CCC3)c(Cl)cc1F", "note": "[compound 11, 4-(2-chloro-4-fluoro-5-methoxyphenyl)-6,7-dihydro-5H-cyclopenta[d]pyrimidin-2-amine]", "IC50": "4 to 10"}, {"smiles": "CN(CCC#N)C(=O)c1cc2c(-c3c(Cl)cc(Cl)c4c3CCO4)nc(N)nc2s1", "note": "[compound 71, 2-amino-N-(2-cyanoethyl)-4-(5,7-dichloro-2,3-dihydrobenzofuran-4-yl)-N-methylthieno[2,3-d]pyrimidine-6-carboxamide]", "IC50": "< 1"}, {"smiles": "N#CCCNC(=O)c1cc2c(-c3c(Cl)cc(Cl)c4c3CCO4)nc(N)nc2s1", "note": "[compound 59, 2-amino-N-(2-cyanoethyl)-4-(5,7-dichloro-2,3-dihydrobenzofuran-4-yl)thieno[2,3-d]pyrimidine-6-carboxamide]", "IC50": "< 1"}, {"smiles": "COc1cc(-c2nc(N)nc(SC)n2)c(Cl)cc1Cl", "note": "[compound 34]", "IC50": "< 1"}, {"smiles": "CN(C(=O)c1cc2c(-c3c(Cl)cc(Cl)c4c3CCO4)nc(N)nc2s1)C1COC1", "note": "[compound 72, 2-amino-4-(5,7-dichloro-2,3-dihydrobenzofuran-4-yl)-N-methyl-N-(oxetan-3-yl)thieno[2,3-d]pyrimidine-6-carboxamide]", "IC50": "1 to 4"}, {"smiles": "CN(CC(F)(F)F)C(=O)c1cc2c(-c3c(Cl)cc(Cl)c4c3CCO4)nc(N)nc2s1", "note": "[compound 70, 2-amino-4-(5,7-dichloro-2,3-dihydrobenzofuran-4-yl)-N-methyl-N-(2,2,2-trifluoroethyl)thieno[2,3-d]pyrimidine-6-carboxamide]", "IC50": "4 to 10"}, {"smiles": "CNc1cc(-c2c(Cl)cc(Cl)c3c2CCO3)nc(N)n1", "note": "[compound 33]", "IC50": "4 to 10"}, {"smiles": "Nc1nc(-c2c(Cl)cc(Cl)c3c2CCO3)c2cc(C(=O)NC3CC3)sc2n1", "note": "[compound 62, 2-amino-N-cyclopropyl-4-(5,7-dichloro-2,3-dihydrobenzofuran-4-yl)thieno[2,3-d]pyrimidine-6-carboxamide]", "IC50": "< 1"}, {"smiles": "COCCNC(=O)c1cc2c(-c3c(Cl)cc(Cl)c4c3CCO4)nc(N)nc2s1", "note": "[compound 64, 2-amino-4-(5,7-dichloro-2,3-dihydrobenzofuran-4-yl)-N-(2-methoxyethyl)thieno[2,3-d]pyrimidine-6-carboxamide]", "IC50": "< 1"}, {"smiles": "Nc1nc(-c2c(Cl)cc(Cl)c3c2CCO3)c2[nH]cc(C=O)c2n1", "note": "[compound 56, 2-amino-4-(5,7-dichloro-2,3-dihydrobenzofuran-4-yl)-5H-pyrrolo[3,2-d]pyrimidine-7-carbaldehyde]", "IC50": "> 10"}, {"smiles": "COc1cc(-c2cc(C)nc(N)n2)c(C(F)(F)F)cc1Cl", "note": "[compound 1]", "IC50": "> 10"}, {"smiles": "CC(C)(O)c1cc2c(-c3c(Cl)cc(Cl)c4c3CCO4)nc(N)nc2s1", "note": "[compound 77, 2-(2-amino-4-(5,7-dichloro-2,3-dihydrobenzofuran-4-yl)thieno[2,3-d]pyrimidin-6-yl)propan-2-ol]", "IC50": "1 to 4"}, {"smiles": "CCNC(=O)Cn1ccc2c(-c3c(Cl)cc(Cl)c4c3CCO4)nc(N)nc21", "note": "[compound 32]", "IC50": "> 10"}, {"smiles": "COc1cc(-c2nc(N)nc3c(Br)c[nH]c23)c(Cl)cc1Cl", "note": "[compound 57, 7-bromo-4-(2,4-dichloro-5-methoxyphenyl)-5H-pyrrolo[3,2-d]pyrimidin-2-amine]", "IC50": "> 10"}, {"smiles": "CCNC(=O)N1Cc2nc(N)nc(-c3c(Cl)cc(Cl)c4c3CCO4)c2C1", "note": "[compound 17]", "IC50": "> 10"}, {"smiles": "CN(C)C(=O)c1cc2c(-c3c(Cl)cc(Cl)c4c3CCO4)nc(N)nc2s1", "note": "[compound 66, 2-amino-4-(5,7-dichloro-2,3-dihydrobenzofuran-4-yl)-N,N-dimethylthieno[2,3-d]pyrimidine-6-carboxamide]", "IC50": "< 1"}, {"smiles": "Cc1cc(-c2cc(OC(C)C)c(Cl)cc2Cl)nc(N)n1", "note": "[compound 2]", "IC50": "1 to 4"}, {"smiles": "Nc1nc(O)cc(-c2c(Cl)cc(Cl)c3c2CCO3)n1", "note": "[compound 53, 2-amino-6-(5,7-dichloro-2,3-dihydrobenzofuran-4-yl)pyrimidin-4-ol]", "IC50": "> 10"}, {"smiles": "Nc1nc(-c2c(Cl)cc(Cl)c3c2CCO3)c2cc(C(=O)NCCN3CCCC3)sc2n1", "note": "[compound 58, 2-amino-4-(5,7-dichloro-2,3-dihydrobenzofuran-4-yl)-N-(2-(pyrrolidin-1-yl)ethyl)thieno[2,3-d]pyrimidine-6-carboxamide]", "IC50": "< 1"}, {"smiles": "Nc1nc(-c2c(Cl)cc(Cl)c3c2CCO3)c2cc(C(=O)NCCO)sc2n1", "note": "[compound 60, 2-amino-4-(5,7-dichloro-2,3-dihydrobenzofuran-4-yl)-N-(2-hydroxyethyl)thieno[2,3-d]pyrimidine-6-carboxamide]", "IC50": "< 1"}, {"smiles": "COc1cc(-c2cc(C)nc(N)n2)c(Cl)cc1Cl", "note": "[compound 38]", "IC50": "1 to 4"}, {"smiles": "Cn1ccc2c(-c3c(Cl)cc(Cl)c4c3CCO4)nc(N)nc21", "note": "[compound 30]", "IC50": "> 10"}, {"smiles": "COc1cc(-c2cc(SC)nc(N)n2)c(Cl)cc1Cl", "note": "[compound 35]", "IC50": "< 1"}, {"smiles": "Nc1nc(Cl)c(N)c(-c2c(Cl)cc(Cl)c3c2CCO3)n1", "note": "[compound 52, 4-chloro-6-(5,7-dichloro-2,3-dihydrobenzofuran-4-yl)pyrimidine-2,5-diamine]", "IC50": "< 1"}, {"smiles": "CNC(=O)c1cc2c(-c3c(Cl)cc(Cl)c4c3CCO4)nc(N)nc2s1", "note": "[compound 63, 2-amino-4-(5,7-dichloro-2,3-dihydrobenzofuran-4-yl)-N-methylthieno[2,3-d]pyrimidine-6-carboxamide]", "IC50": "< 1"}, {"smiles": "Nc1nc(-c2c(Cl)cc(Cl)c3c2CCO3)c2cc(C(=O)NCC(F)(F)F)sc2n1", "note": "[compound 61, 2-amino-4-(5,7-dichloro-2,3-dihydrobenzofuran-4-yl)-N-(2,2,2-trifluoroethyl)thieno[2,3-d]pyrimidine-6-carboxamide]", "IC50": "< 1"}, {"smiles": "Nc1nc2c(c(-c3c(Cl)cc(Cl)c4c3CCO4)n1)CCCC2", "note": "[compound 15, 4-(5,7-dichloro-2,3-dihydrobenzofuran-4-yl)-5,6,7,8-tetrahydroquinazolin-2-amine]", "IC50": "4 to 10"}, {"smiles": "Nc1nc(-c2c(Cl)cc(Cl)c3c2CCO3)cc(C(F)(F)F)n1", "note": "[compound 50, 4-trifluoromethyl-6-(5,7-dichloro-2,3-dihydrobenzofuran-4-yl)pyrimidin-2-amine]", "IC50": "1 to 4"}, {"smiles": "COc1ccc(Cl)c(-c2cc(Cl)nc(N)n2)c1", "note": "[Compound 78]", "IC50": "1 to 4"}, {"smiles": "COc1cc(-c2nc(N)nc(-c3cc(OC)c(Cl)cc3Cl)n2)c(Cl)cc1Cl", "note": "[compound 37]", "IC50": "> 10"}, {"smiles": "Nc1nc(-c2c(Cl)cc(Cl)c3c2CCO3)c2cc(C(=O)NC3COC3)sc2n1", "note": "[compound 67, 2-amino-4-(5,7-dichloro-2,3-dihydrobenzofuran-4-yl)-N-(oxetan-3-yl)thieno[2,3-d]pyrimidine-6-carboxamide]", "IC50": "< 1"}, {"smiles": "CCNC(=O)Cn1ccc2nc(N)nc(-c3c(Cl)cc(Cl)c4c3CCO4)c21", "note": "[compound 31]", "IC50": "> 10"}, {"smiles": "CNc1nc(C)cc(-c2c(Cl)cc(Cl)c3c2CCO3)n1", "note": "[compound 3, 4-(5,7-Dichloro-2,3-dihydrobenzofuran-4-yl)-N,6-dimethylpyrimidin-2-amine]", "IC50": "> 10"}, {"smiles": "CSc1cc(-c2c(Cl)cc(Cl)c3c2CCO3)nc(N)n1", "note": "[compound 51, 4-thiomethyl-6-(5,7-dichloro-2,3-dihydrobenzofuran-4-yl)pyrimidin-2-amine]", "IC50": "< 1"}, {"smiles": "COc1cc(-c2cc(Cl)nc(N)n2)ccc1Cl", "note": "[Compound 79]", "IC50": "< 1"}, {"smiles": "COC(=O)n1ccc2nc(N)nc(-c3c(Cl)cc(Cl)c4c3CCO4)c21", "note": "[compound 54, Methyl 2-amino-4-(5,7-dichloro-2,3-dihydrobenzofuran-4-yl)-5H-pyrrolo[3,2-d]pyrimidine-5-carboxylate]", "IC50": "> 10"}, {"smiles": "CN(C(=O)c1cc2c(-c3c(Cl)cc(Cl)c4c3CCO4)nc(N)nc2s1)C1CC1", "note": "[compound 74, 2-amino-N-cyclopropyl-4-(5,7-dichloro-2,3-dihydrobenzofuran-4-yl)-N-methylthieno[2,3-d]pyrimidine-6-carboxamide]", "IC50": "1 to 4"}, {"smiles": "CCC(=O)c1cc2c(-c3c(Cl)cc(Cl)c4c3CCO4)nc(N)nc2s1", "note": "[compound 76, 1-(2-amino-4-(5,7-dichloro-2,3-dihydrobenzofuran-4-yl)thieno[2,3-d]pyrimidin-6-yl)propan-1-one]", "IC50": "< 1"}, {"smiles": "Nc1nc(-c2c(Cl)cc(Cl)c3c2CCO3)c2cc(C(=O)N3CCOCC3)sc2n1", "note": "[compound 68, (2-amino-4-(5,7-dichloro-2,3-dihydrobenzofuran-4-yl)thieno[2,3-d]pyrimidin-6-yl)(morpholino)methanone]", "IC50": "1 to 4"}, {"smiles": "Nc1nc(Cl)cc(-c2c(Cl)cc(Cl)c3c2CCO3)n1", "note": "[compound 49, 4-chloro-6-(5,7-dichloro-2,3-dihydrobenzofuran-4-yl)pyrimidin-2-amine]", "IC50": "< 1"}, {"smiles": "Cc1cc(-c2c(Cl)cc(Cl)c3c2CCO3)nc(N(C)C)n1", "note": "[compound 4, 4-(5,7-Dichloro-2,3-dihydrobenzofuran-4-yl)-N,N,6-trimethylpyrimidin-2-amine]", "IC50": "> 10"}]}, {"tested_on": "T1, His-tagged-Hsp90", "assay": "Hsp90 biochemical assay (AlphaLISA)", "assay_type": "binding", "conditions": "known Hsp90 inhibitor, biotinylated geldanamycin; read-out: IC50 (AlphaLISA assay validation)", "description": "as §1", "units": {"IC50": "µM"}, "values": [{"smiles": "CC(C)NCCCn1c(Sc2cc3c(cc2I)OCO3)nc2c(N)ncnc21", "note": "[PU-H71, reference compound]", "IC50": 0.06}]}]}
